Experiment [1] has as its target CLPY biosensor (CFP-LuxP-YFP fusion) (Vibrio harveyi, UniProt P54300, D303A). Put plainly: CLPY FRET binding affinity determination. Also noted: species or system V. harveyi. On the procedure:
The YFP or CFP fluorescence response of wild-type and mutant forms of CLPY (1.0 mL, 0.015 mg/mL) to different ligands is measured 5 minutes after addition of the ligand to the protein at room temperature. No time-dependent changes in the CLPY FRET ratio are observed after incubation for 5 minutes. All BAI-2 dilutions are carried out in a borate-free buffer to maintain the DPD:borate ratio (1:4). The CLPY FRET ratio response to different BAI-2 concentrations is used to generate the ligand binding saturation curve. For the determination of the binding affinity (Kd) and the binding stoichiometry n, a nonlinear regression analysis equation (Equation 4) is used as shown below: […]
where R is the observed CLPY FRET ratio response for different ligand concentrations (s) and Rmax and Rmin represent the ligand-free and ligand-saturated FRET ratios, respectively.

Experiment [2] concerns V. harveyi strain MM30 (luxS-). The experiment can be described thus: Bacterial reporter bioassay (luminescence) and EC50 determination. Format: cell-based. The note with it: MM30 in borate-free AB medium. The protocol: V. harveyi strain MM30 (luxS^−) is grown overnight at 28° C. for 16 hours and diluted 1:5000 in fresh borate-free AB medium. Bacteria (90 μL) are added to a 96-well microtiter plate containing 10 μL dilutions of the sample and incubated for 4 hours at 30° C. Luminescence is read using a Wallac Victor2 multimode plate reader (Perkin-Elmer). The BAI-2 concentration required for 50% maximum luminescence response (EC50) is determined using a relationship based on the luminescence response L for different ligand concentrations (s)
where Lmin and Lmax represent the minimum and maximum luminescence responses, respectively, at the time of measurement.

Regarding `CC(=O)C(=O)C(O)CO` (stereo not shown) [DPD, 4,5-dihydroxy-2,3-pentanedione], the “CLPY FRET response” value in experiment [1] (DPD ≦100 μM) is on record as “did not exhibit any detectable FRET response”. Further, the “bacterial reporter strain luminescence response (qualitative)” value in experiment [2] is “did not respond”.
On to `OB(O)O` [borate], for which the “CLPY FRET response” value in experiment [1] (borate ≦400 μM) is on record as “did not exhibit any detectable FRET response”. The “bacterial reporter strain luminescence response (qualitative)” value in experiment [2] is “did not respond”.

These data come from patent US20120122115A1, “Bacterial quorum sensing biosensor” (priority 2006, published 2012).
